From ChEMBL document CHEMBL1148536, “Safrole oxide induces apoptosis by activating caspase-3, -8, and -9 in A549 human lung cancer cells” (Bioorg Med Chem Lett, 2006)
Active and inactive are the calls of the source.

Key:
Assay type in all cases: functional, cell-based
A549 [1] = assay: Effect on caspase 3 activation to initiate apoptosis in A549 human lung cancer cell line
Caspase-8 (Homo sapiens) = Caspase-8 (Homo sapiens) (UniProt Q14790); assay: Effect on caspase 8 activation to initiate apoptosis in A549 human lung cancer cell line
A549 [2] = assay: Effect on caspase 9 activation to initiate apoptosis in A549 human lung cancer cell line

Measured: Activity

Caspase-8 (Homo sapiens), sequence (Q14790 217-374 limits assumed): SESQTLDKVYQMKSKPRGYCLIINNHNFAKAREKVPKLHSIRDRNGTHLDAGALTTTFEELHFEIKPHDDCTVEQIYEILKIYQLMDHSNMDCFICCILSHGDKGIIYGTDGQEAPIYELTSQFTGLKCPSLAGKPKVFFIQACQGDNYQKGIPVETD
Caspase-8 (Homo sapiens), sequence (Q14790 385-479 limits assumed): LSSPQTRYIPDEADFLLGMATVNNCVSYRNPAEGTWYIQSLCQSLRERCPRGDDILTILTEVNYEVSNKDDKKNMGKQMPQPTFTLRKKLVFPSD

c1cc2c(cc1CC1CO1)OCO2 (stereo not drawn)
active: all assays above
